Data published in patent US20130296311A1, “INHIBITORS OF HCV NS5A” (PRESIDIO PHARMACEUTICALS, INC., priority 2010, published 2013).

System: HCV 1b_Huh-Luc/Neo-ET cell line persistently expressing a bicistronic genotype 1b replicon in Huh 7 cells
Assay: HCV replicon assay (luciferase readout, 72 h)
Format: cell-based, HCV genotype 1b
Details: Hepatitis C virus, Huh-7, 72 h, read-out: Inhibition of HCV genotype 1b
Experimental: Biological activity of the compounds of the invention was determined using an HCV replicon assay. The HCV 1b_Huh-Luc/Neo-ET cell line persistently expressing a bicistronic genotype 1b replicon in Huh 7 cells was obtained from ReBLikon GMBH. This cell line was used to test compound inhibition using luciferase enzyme activity readout as a measurement of compound inhibition of replicon levels.
On Day 1 (the day after plating), each compound is added in triplicate to the cells. Plates incubated for 72 h prior to running the luciferase assay. Enzyme activity was measured using a Bright-Glo Kit (cat. number E2620) manufactured by Promega Corporation. The following equation was used to generate a percent control value for each compound.
% Control=(Average Compound Value/Average Control)*100
The EC50 value was determined using GraphPad Prism and the following equation:
Y=Bottom+(Top-Bottom)/(1+10̂((LogIC50−X)*HillSlope))
EC50 values of compounds are determined several times in the replicon assay.
Example compounds of the disclosed invention are illustrated in Tables 1-16 attached as appendices. The tables show inhibitory activity of many of the example compounds with respect to HCV 1b. […] The tables further provide mass spectrometry results for the synthesized example compounds.

| Compound | EC50 [nM] |
| --- | --- |
| O=C(N[C@@H](C(=O)N1CCC[C@H]1c1ncc(C#Cc2ccc(-c3ccc(-c4cnc([C@@H]5CCCN5C(=O)[C@H](NC(=O)N5CC[C@@H](O)C5)c5ccccc5)[nH]4)cc3)cc2)[nH]1)c1ccccc1)N1CC[C@@H](O)C1 [Compound 763] | < 1 |
| O=C([C@@H](c1ccccc1)N1CCOCC1)N1CCC[C@H]1c1ncc(-c2ccc(C#Cc3ccc(-c4cnc([C@@H]5CCCN5C(=O)[C@@H](c5ccccc5)N5CCOCC5)[nH]4)cc3)cc2)[nH]1 [Compound 184] | < 1 |
| CC(C)[C@@H](NC(=O)C1CC1)C(=O)N1CCC[C@H]1c1ncc(C#Cc2ccc(-c3cnc([C@@H]4CCCN4C(=O)[C@H](NC(=O)C4CC4)C(C)C)[nH]3)cc2)[nH]1 [Compound 107] | 1 to 9.9 |
| COC(=O)N[C@@H](C(=O)N[C@@H](C)c1ncc(-c2ccc(C#Cc3ccc(-c4cnc([C@@H]5CCCN5C(=O)[C@H](NC(=O)OC)C(C)C)[nH]4)cc3)cc2)[nH]1)C(C)C [Compound 290] | > 1000 |
| CN(C)[C@@H](C(=O)N1CCC[C@H]1c1ncc(-c2ccc(C#Cc3ccc(-c4cnc([C@@H]5CCCN5C(=O)[C@@H](c5ccccc5)N(C)C)[nH]4)cc3)cc2)[nH]1)c1ccccc1 [Compound 160] | < 1 |
| COC(=O)N[C@H](C(=O)N1CCC[C@H]1c1ncc(-c2ccc(C#Cc3ccc4c(ccc5nc([C@@H]6CCCN6C(=O)[C@@H](NC(=O)OC)C(C)C)[nH]c54)c3)cc2)[nH]1)C(C)C [Compound 1095] | < 1 |
| COC(=O)N[C@@H](C(=O)N1CCC[C@H]1c1ncc(-c2ccc(C#Cc3ccc(-c4cnc([C@@H]5CCCN5C(=O)[C@H](NC(=O)N5CCC[C@H](O)C5)c5ccccc5)[nH]4)cc3)cc2)[nH]1)c1ccccc1 [Compound 263] | < 1 |
| O=C(N[C@@H](C(=O)N1CCC[C@H]1c1ncc(C#Cc2ccc(-c3cnc([C@@H]4CCCN4C(=O)[C@H](NC(=O)C4CC4)c4ccccc4)[nH]3)cc2)[nH]1)c1ccccc1)C1CC1 [Compound 100] | < 1 |
| O=C(N[C@@H](C(=O)N1CCC[C@H]1C(=O)Nc1ccc(C#Cc2ccc(-c3cnc([C@@H]4CCCN4C(=O)[C@H](NC(=O)C4CC4)c4ccccc4)[nH]3)cc2)cc1)c1ccccc1)C1CC1 [Compound 166] | < 1 |
| COC(=O)N[C@H](C(=O)N[C@@H](C)c1ncc(-c2ccc(C#Cc3ccc(-c4cnc([C@@H]5CCCN5C(=O)[C@@H](NC(=O)OC)[C@@H](C)O)[nH]4)cc3)cc2)[nH]1)[C@@H](C)O [Compound 291] | < 1 |
| COC(=O)N[C@@H](C(=O)N1CCC[C@H]1c1ncc(-c2ccc(C#Cc3ccc(-c4cnc([C@@H]5CCCN5C(=O)[C@H](NS(C)(=O)=O)c5ccccc5)[nH]4)cc3)cc2)[nH]1)c1ccccc1 [Compound 225] | < 1 |
| COC(=O)N[C@@H](C(=O)N1CCC[C@H]1c1cc(-c2ccc(C#Cc3ccc(-c4cnc([C@@H]5CCCN5C(=O)[C@H](NC(=O)OC)c5ccccc5)[nH]4)cc3)cc2)n[nH]1)c1ccccc1 [Compound 219] | < 1 |
| CC[C@H](NC(=O)OC)C(=O)N1CCC[C@H]1c1ncc(-c2ccc(C#Cc3ccc4nc([C@@H]5CCCN5C(=O)[C@H](CC)NC(=O)OC)[nH]c4c3)cc2)[nH]1 [Compound 1036] | < 1 |
| COC(=O)N[C@H](C(=O)N1CCC[C@H]1c1ncc(C#Cc2ccc(-c3ccc4nc([C@@H]5CCCN5C(=O)[C@@H](NC(=O)OC)C(C)C)[nH]c4c3)cc2)[nH]1)C(C)C [Compound 1084] | < 1 |
| O=C(N[C@@H](C(=O)N1CCC[C@H]1C(=O)Nc1ccc(C#Cc2cnc([C@@H]3CCCN3C(=O)[C@H](NC(=O)C3CC3)c3ccccc3)[nH]2)cc1)c1ccccc1)C1CC1 [Compound 117] | < 1 |
| COC(=O)N[C@H](C(=O)N1CCC[C@H]1c1nc2c([nH]1)-c1ccc(C#Cc3ccc(-c4cnc([C@@H]5CCCN5C(=O)[C@@H](NC(=O)OC)C5CCOCC5)[nH]4)cc3)cc1CC2)C(C)C [Compound 1091] | < 1 |
| COC(=O)N[C@@H](C(=O)N1CCC[C@H]1CNC(=O)c1ccc(C#Cc2ccc(-c3cnc([C@@H]4CCCN4C(=O)[C@H](NC(=O)OC)c4ccccc4)[nH]3)cc2)cc1)c1ccccc1 [Compound 211] | < 1 |
| COC(=O)NC(C)(C)C(=O)N1CCC[C@H]1c1ncc(-c2ccc(C#Cc3ccc4nc([C@@H]5CCCN5C(=O)C(C)(C)NC(=O)OC)[nH]c4c3)cc2)[nH]1 [Compound 1050] | 10 to 999 |
| COC(=O)N[C@H](C(=O)N1CCC[C@H]1c1nc2c([nH]1)-c1ccc(C#Cc3ccc4nc([C@@H]5CCCN5C(=O)[C@H](NC(=O)OC5CCOCC5)c5ccccc5)[nH]c4c3)cc1CC2)C(C)C [Compound 1104] | < 1 |
| CC(C)[C@@H](NC(=O)N1CCCC1)C(=O)N1CCC[C@H]1c1ncc(-c2ccc(C#Cc3ccc(-c4cnc([C@@H]5CCCN5C(=O)[C@H](NC(=O)N5CCCC5)C(C)C)[nH]4)cc3)cc2)[nH]1 [Compound 293] | > 1000 |
| COC(=O)N[C@@H](C(=O)N1CCC[C@H]1c1ncc(-c2ccc(C#Cc3ccc(-c4cnc([C@@H]5CCCN5C(=O)[C@H](NC(=O)[C@H]5CCCN5C)c5ccccc5)[nH]4)cc3)cc2)[nH]1)c1ccccc1 [Compound 204] | < 1 |
| COC(=O)N[C@@H](C(=O)N1CCC[C@H]1c1ncc(-c2ccc(C#Cc3ccc(-c4cnc([C@@H]5CCCN5C(=O)Cc5cccnc5)[nH]4)cc3)cc2)[nH]1)c1ccccc1 [Compound 181] | < 1 |
| COC(=O)N[C@H](C(=O)N1CCC[C@H]1c1ncc(-c2ccc(C#Cc3ccc(-c4cnc([C@@H]5CCCN5C(=O)[C@@H](NC(=O)OC)[C@@H](C)OC)[nH]4)cc3)cc2)[nH]1)C(C)C [Compound 972] | < 1 |
| COC(=O)N[C@H](C(=O)N1CCC[C@H]1c1ncc(-c2ccc(C#Cc3ccc(-c4cnc([C@@H]5CCCN5C(=O)[C@H](NC(=O)N5CC[C@H](O)C5)c5ccccc5)[nH]4)cc3)cc2)[nH]1)C(C)C [Compound 974] | < 1 |
| COC(=O)N[C@H](C(=O)N1CCC[C@H]1c1ncc(-c2ccc(C#Cc3ccc(-c4cnc([C@@H]5CCCN5C(=O)[C@@H](c5ccccc5)N5CCCC5)[nH]4)cc3)cc2)[nH]1)C(C)C [Compound 984] | < 1 |

Same assay, conditions: Hepatitis C virus, Huh-7, read-out: Inhibition of HCV genotype 1b

| Compound | EC50 [nM] |
| --- | --- |
| COC(=O)N[C@H](C(=O)N1CCC[C@H]1c1nc2ccc(C#Cc3ccc4c(ccc5nc([C@@H]6CCCN6C(=O)[C@@H](NC(=O)OC)[C@@H](C)OC)[nH]c54)c3)cc2[nH]1)C(C)C [Compound 1286] | < 1 |
| COC(=O)N[C@H](C(=O)N1CCC[C@H]1c1ncc(-c2ccc(C#Cc3ccc(-c4cnc([C@@H]5CCCN5C(=O)[C@@H](NC(=O)OC)C5CCOCC5)[nH]4)cc3)cc2)[nH]1)C1CCOCC1 [Compound 1218] | < 1 |
| COC(=O)N[C@H](C(=O)N1CCC[C@H]1c1ncc(-c2ccc3cc(C#Cc4[nH]c([C@@H]5CCCN5C(=O)[C@@H](NC(=O)OC)[C@@H](C)OC)nc4C(F)(F)F)ccc3c2)[nH]1)[C@@H](C)OC [Compound 1255] | < 1 |
| COC(=O)N[C@H](C(=O)N1CCC[C@H]1c1nc2c([nH]1)-c1ccc(C#Cc3ccc4nc([C@@H]5CCCN5C(=O)[C@H](NC(=O)OC5CCOCC5)c5ccccc5)[nH]c4c3)cc1CCC2)C(C)C [Compound 1282] | < 1 |
| COC(=O)N[C@H](C(=O)N1CCC[C@H]1c1ncc(-c2ccc(C#Cc3ccc(-c4cnc([C@@H]5CCCN5C(=O)[C@H](NC(=O)OC)c5cccs5)[nH]4)cc3)cc2)[nH]1)[C@@H](C)OC [Compound 1213] | < 1 |
